From patent US20100022404A1, “Gene/protein marker for prediction or diagnosis of pharmacological efficacy of aurora a inhibitor” (priority 2006, published 2010)

How the values were obtained:
[1] = system: Aurora B (Thr232) phosphorylation; assay: Western blotting of total Aurora B and phospho-Aurora B (Thr232) in synchronized HeLa S3 cells with Aurora inhibitors (Example 7); format: cell-based, human; settings: 300 nM added 4 hours after release, sampling 0 to 24 hours, FIG. 24
Procedure: First, HeLa S3 cells were synchronized at the GI/S boundary by the above-mentioned double-thymidine block, and after 4 hours from the start of release, a control (DMSO, final 0.5%), an Aurora A-selective inhibitor 6-((4-(2,3-difluorobenzoyl)piperazin-1-yl)methyl)-N-thiazol-2-ylpyridin-2-amine (in FIG. 24, this is shown as “Aurora A Inhibitor 1”), an Aurora B inhibitor ZM477439 (J. Cell. Biol., Vol. 161, p. 267, 2003) or a pan-Aurora inhibitor VX-680 was added in an amount of 300 nM, followed by sampling at regular intervals for 0 to 24 hours. Next, the samples were analyzed for total Aurora B and phospho-Aurora B (Thr232) expression by western blotting.

[2] = system: histone H3 (Ser28) phosphorylation; assay: Western blotting of histone H3 Ser28 and Ser10 phosphorylation in asynchronous HeLa S3 cells (Example 8); format: cell-based, human; settings: concentration series, compared with phospho-Aurora B (Thr232), FIG. 26
[3] = system: PD marker candidate genes (BIRC5, KNTC2, PRC1, TACC3, DLG7) in HeLa-S3 cells; assay: Real-time PCR of PD marker candidate genes after treatment with Aurora A inhibitor (Example 2); format: cell-based, human; settings: 24 hours, FIGS. 6 to 10
Procedure: A predetermined concentration of 6-((4-(2,3-difluorobenzoyl)piperazin-1-yl)methyl)-N-thiazol-2-ylpyridin-2-amine was acted on HeLa-S3 cells; and after 24 hours, the cells were collected, the total RNA was isolated and then converted into cDNA, and this was processed for real-time PCR in the same manner as in Example 1.

[4] = system: PD marker candidate genes in HeLa-luc cancer graft; assay: Expression change of PD marker candidate genes in planted cancer, continuous administration to rat (Example 3); format: in vivo, F344/N Jcl-rnu female nude rat; settings: nude rat with HeLa-luc graft, intravenous drip infusion for 48 hours
Procedure: (§1) First, a cervical cancer strain HeLa-luc cells were subcutaneously transplanted to the back of an F344/N Jcl-rnu female nude rat. After 1 week, a […] cancer nude rat was subjected to femoral vein cannulation operation; and using a syringe pump, an Aurora A inhibitor 6-((4-(2-fluoro-3-(trifluoromethyl)benzoyl)piperazin-1-yl)methyl)-N-1H-pyrazol-3-ylpyrazin-2-amine was administered by intravenous drip infusion for 48 hours. After the administration, the collected cancer graft and the skin specimen were frozen and stored in liquid nitrogen.
Next, the total RNA was isolated from the collected cancer graft and formed into cDNA, which was checked for the expression change of the PD marker candidate genes. In addition to 5 genes identified in culture cells, Aurora A (AurA) and Aurora B (AurB) were also investigated as candidate genes. The primer probe sets for Aurora A and B are as follows. For every primer and probe, a human gene was used as the template.

[5] = system: Aurora B (Thr232) phosphorylation; assay: Western blotting of phospho-Aurora B (Thr232), Aurora B, Survivin, Plk1 in asynchronous HeLa S3 cells with Aurora A-selective inhibitor (Example 6); format: cell-based, human; settings: for ratio of phospho-Aurora B/Aurora B: based on the compound concentration 0 nM of 1
Procedure: (§2) First, asynchronously-cultured HeLa S3 cells were planted in an amount of 1×10^6 cells, and incubated overnight at 37° C. in 5% CO2. At 10:00 on the next day, the medium was exchanged with a medium to which 6-((4-(3-chloro-2-fluorobenzoyl)piperazin-1-yl)methyl)-N-thiazol-2-ylpyridin-2-amine had been added to be a final concentration of 0, 30, 100, 300, 1000, 3000, 10000, 30000 nM, and then, after 8 hours and 24 hours, the cells were peeled with trypsin and collected. A half of the cells was analyzed by western blotting; ¼ of the cells were analyzed for cell cycle through flow cytometry; and the last remaining ones were analyzed for phosphorylation of histone H3 (Ser10). The cell samples processed in the same manner were analyzed for expression profiling through TaqMan-PCR.

[6] = system: HeLa S3 cells; assay: Cell cycle analysis by flow cytometry in asynchronous HeLa S3 cells with Aurora A-selective inhibitor (Example 6); format: cell-based, human; settings: 8 hours and 24 hours, FIGS. 20, 21
Procedure: as §2

[7] = system: histone H3 (Ser10) phosphorylation; assay: Histone H3 (Ser10) phosphorylation by flow cytometry in HeLa S3 cells (Example 6); format: cell-based, human; settings: FIG. 23
Procedure: as §2

[8] = system: PD marker candidate genes in rat skin; assay: Expression change of PD marker candidate genes in skin, continuous administration to rat (Example 4); format: in vivo; settings: same rat skin as Example 3 (intravenous drip infusion for 48 hours); FIGS. 13 to 16
Procedure: as §1
The same rat skin as that used in Example 3 was checked for the expression change of PD marker candidate genes through real-time PCR. The primers of the candidate genes in the rat are as shown below. For every primer and probe, a rat gene was used as the template. The probe was modified with FAM/TAMRA.

[9] = HeLa S3 cells, 8 hours and 24 hours
[10] = HeLa S3 cells, expression admitted in the background with no compound addition

O=C(c1cccc(F)c1F)N1CCN(Cc2cccc(Nc3nccs3)n2)CC1 [6-((4-(2,3-difluorobenzoyl)piperazin-1-yl)methyl)-N-thiazol-2-ylpyridin-2-amine]
Aurora B expression [1]: expressed Aurora B to a high level even after 10 hours
phospho-Aurora B (Thr232) expression [1]: remarkably increased
phospho-histone H3 (Ser28) induction by inhibitor [2]: concentration-dependent induction
expression level of the PD marker candidate genes (BIRC5, KNTC2, PRC1, TACC3, DLG7) [3]: increased dependently on the Aurora A inhibitor concentration

O=C(c1cccc(C(F)(F)F)c1F)N1CCN(Cc2cncc(Nc3cc[nH]n3)n2)CC1 [6-((4-(2-fluoro-3-(trifluoromethyl)benzoyl)piperazin-1-yl)methyl)-N-1H-pyrazol-3-ylpyrazin-2-amine]
expression of BIRC5 in cancer graft [4]: significantly increased
expression of DLG7 in cancer graft [4]: significantly increased
peak of the expression change (dose) [4]: 1 mpk
expression level of the PD marker candidate genes in cancer graft ([4]; FIGS. 11 and 12): increased

O=C(c1cccc(Cl)c1F)N1CCN(Cc2cccc(Nc3nccs3)n2)CC1 [6-((4-(3-chloro-2-fluorobenzoyl)piperazin-1-yl)methyl)-N-thiazol-2-ylpyridin-2-amine]
concentration range in which Aurora B inhibition begins (phosphorylation of Aurora B again inhibited) ([5]; HeLa S3 cells): > 30 µM
expression of phospho-Aurora B (Thr232) ([5]; HeLa S3 cells, 0-30000 nM, exposure 8 hours and 24 hours, FIG. 22): increased dependently on the administration concentration
concentration of phosphorylation depression of Aurora B (considered Aurora B inhibition) [5, 9]: ≥ 30 µM
expression level of Aurora B [5, 9]: did not change so much
expression induction window of Plk1 [5, 10]: at most 3.5 times
expression induction window of Survivin [5, 10]: at most 3.5 times
ratio of phospho-Aurora B/Aurora B ([5]; exposure period of 8 hours): at most 16 times
ratio of phospho-Aurora B/Aurora B ([5]; exposure period of 24 hours): up to 10 times
concentration from which the proportion of the M-stage began to increase [6]: around 300 nM
concentration up to which the M-stage was kept [6]: around 10 μM
Histone H3 (Ser10) phosphorylation in flow cytometry [7]: could not take a large window

Cc1cc(Nc2cc(N3CCN(C)CC3)nc(Sc3ccc(NC(=O)C4CC4)cc3)n2)n[nH]1 [VX-680]
Aurora B expression [1]: detected on the same level as that in the control
phospho-Aurora B (Thr232) expression [1]: no phospho-Aurora B was detected at all
phospho-histone H3 (Ser28) induction by inhibitor [2]: did not have a phosphorylation band at all

COc1cc2c(Nc3ccc(NC(=O)c4ccccc4)cc3)ncnc2cc1OCCCN1CCOCC1 [ZM477439]
Aurora B expression [1]: detected on the same level as that in the control
phospho-Aurora B (Thr232) expression [1]: no phospho-Aurora B was detected at all

O=C(O)[C@]1(Cc2cccc(Nc3nccs3)n2)CC[C@@H](Oc2cccc(Cl)c2F)CC1 [trans-4-(3-chloro-2-fluorophenoxy)-1-((6-(1,3-thiazol-2-ylamino)pyridin-2-yl)methyl)cyclohexanecarboxylic acid]
expression level of the candidate genes in rat skin [8]: significantly increased
